In PMC6214120 (International Journal of Molecular Sciences, 2018):
Where two headings read alike, the source gives them in different places.

Legend:
chicken = test: In vivo experiments with BCRP inhibitor Ko143 in chicken; conditions: in vivo experiments with Ko143 as additional BCRP inhibitor were unsuccessful
[1] = Bidirectional transport assay in wild-type MDCK cells; format: in vitro ADME, canine; conditions: dog, FFC 50 μM
Experimental: (§1) Wild-type MDCK cells and MDCK-chAbcg2 cells were seeded into Transwell® inserts (Catalogue number 3460, Corning Coster Corp. Acton, MA, USA) in 12-well plates at a density of 1 × 10^5 cells/insert and cultured for 5 days. The cell layer integrity was tested before transport by measuring transepithelial electrical resistance (TEER) across the apical (AP) and the basolateral (BL) sides of the cell line using a Millicell-ERS epithelial voltometer (Millipore, Burlington, MA, USA). The bidirectional transport experiments were conducted with the transport buffers containing either FFC (50 μM) or the mixture of FFC and gefitinib instead of the blank medium or the medium contain gefitinib (100 μM). After the cells were incubated with transport buffers for 4 h, the samples collected from the receiving sides were submitted for HPLC analysis. The TEER values of each monolayer were checked again at the end of the transport studies to ensure the integrities of cell monolayers during the whole transport analysis. According to FDA guidance a drug with a net efflux ratio that is over 2.0 will be considered as a potential substrate of an efflux pump. The apparent permeability coefficients (Papp) across cell monolayer were calculated as follows: Papp = (dQ/dt)/(A × C0), where A is the area of filter membrane, C0 is the initial concentration of the tested drug, dQ is the amount of transported drug, and dt is time elapsed. The efflux ratio (ER) was calculated from (Papp B→A)/(Papp A→B) and the net efflux ratio (NER) was calculated from […]. Each group has 5 cell monolayers, and the experiment was repeated three times.

chicken BCRP (Abcg2) = test: Bidirectional transport assay in MDCK-chAbcg2 cells; format: in vitro ADME; conditions: chicken, FFC 50 μM, 4 h
Experimental: as §1

chicken BCRP = test: as above; format: in vitro ADME; conditions: MDCK-chAbcg2 vs MDCK, gefitinib as inhibitor
Experimental: as §1

[2] = Pharmacokinetic studies of FFC in broilers; format: in vivo, Arbor Acres (AA) broilers; conditions: for bioavailability: read-out: F (absolute bioavailability); for AUC(0-t): read-out: AUC0~12h; for half-life: read-out: T1/2β (converted)
Experimental: Ten 4-week and fifteen 8-week old AA broilers were used in this study and divided into five groups (5 birds in each group) as follows: Group I, 4-week old birds given FFC orally with a single dose of 20 mg/kg through crop tube gavage; group II, 8-week old birds given FFC orally with a single dose of 20 mg/kg through crop tube gavage; group III, 4-week old birds given FFC intravenously with a single dose of 10 mg/kg through the left brachialis vein; group IV, 8-week old birds given FFC intravenously with a single dose of 10 mg/kg through the left brachialis vein; group V, 8-week old birds orally given FFC (20 mg/kg) plus gefitinib (100 mg/kg, an inhibitor of BCRP) through crop tube gavage. Groups I, II, III, and IV were used to study the influence of age-dependent BCRP expression on FFC pharmacokinetics. The data from group II and group V were used to further analyze the effects of BCRP on FFC pharmacokinetics. […] Plasma was rapidly harvested by centrifugation at 5000 g for 5 min and stored at −80 °C until assayed. The extraction procedures and HPLC method were modified from the previous method. All plasma samples were analyzed on Thermo fisher U3000 high-performance liquid chromatography (HPLC) system. […] The acetonitrile supernatants were combined, evaporated under nitrogen at 40 °C, and dissolved in 0.2 mL of mobile phase, from which 20 μL was injected into HPLC system. The mobile phase consisted of a mixture of acetonitrile-water at a ratio of 20:80 (v/v). The detection conditions as the follows: wavelength at 224 nm, the column temperature at 35 °C and the flow rate at 1 mL/min. The calibration samples were prepared with eight different FFC concentrations using blank plasma. […] The average of inter- and intra-day precision (RSD) was <11%. […] Pharmacokinetic calculations were performed on each individual set of data using 3p97 practical pharmacokinetic software (Version 97, Chinese Pharmacologic Association, Beijing, China). Least-squares fits were determined for both biexponential (two-compartment model) and single exponential (one-compartment model) equations. The number of exponential terms required to describe the plasma concentration-time data for each boiler chickens was determined by application of Akaike’s Information Criterion (AIC Method). The area under the concentration-time curve (AUC) was calculated according to the linear trapezoidal method.

[3] = MDCK-chAbcg2, with gefitinib (100 μM)
[4] = MDCK-chAbcg2, without gefitinib
[5] = Arbor Acres (AA) broiler, plasma, iv, 10 mg/kg, intravenous 10 mg/kg, 4-week old broilers
[6] = Arbor Acres (AA) broiler, plasma, iv, 10 mg/kg, intravenous 10 mg/kg, 8-week old broilers
[7] = Arbor Acres (AA) broiler, plasma, po, 20 mg/kg, oral 20 mg/kg, 4-week old broilers
[8] = Arbor Acres (AA) broiler, plasma, po, 20 mg/kg, oral 20 mg/kg, 8-week old broilers
[9] = Arbor Acres (AA) broiler, plasma, po, 20 mg/kg, with gefitinib 100 mg/kg (BCRP inhibitor, co-dosed orally), oral 20 mg/kg, 8-week old broilers administered gefitinib (100 mg/kg)
[10] = oral 20 mg/kg, 4-week old broilers
[11] = oral 20 mg/kg, 4 week-old broilers
[12] = oral 20 mg/kg, 8-week old broilers
[13] = oral 20 mg/kg, 8-week old broilers administered gefitinib (100 mg/kg)
[14] = oral 20 mg/kg, 8-week old broilers with oral gefitinib 100 mg/kg
[15] = oral 20 mg/kg, 8 week old broilers

COc1ccc2c3c([nH]c2c1)[C@H](CC(C)C)N1C(=O)[C@H](CCC(=O)OC(C)(C)C)NC(=O)[C@@H]1C3 [Ko143]
Toxicity in chicken (chicken): observed toxicity in chicken

CS(=O)(=O)c1ccc([C@@H](O)[C@@H](CF)NC(=O)C(Cl)Cl)cc1 [florfenicol, Florfenicol]
Papp A→B at 4 h, 50 μM ([1]; with gefitinib (100 μM)): 0.37 ± 0.03 ×10⁻⁶ cm/s
Papp B→A at 4 h, 50 μM ([1]; with gefitinib (100 μM)): 0.39 ± 0.01 ×10⁻⁶ cm/s
Papp A→B at 4 h, 50 μM ([1]; without gefitinib): 0.4 ± 0.04 ×10⁻⁶ cm/s
Papp B→A at 4 h, 50 μM ([1]; without gefitinib): 0.4 ± 0.01 ×10⁻⁶ cm/s
Papp A→B at 4 h, 50 μM (chicken BCRP (Abcg2); [3]): 0.37 ± 0.02 ×10⁻⁶ cm/s
Papp B→A at 4 h, 50 μM (chicken BCRP (Abcg2); [3]): 0.43 ± 0.01 ×10⁻⁶ cm/s
Papp A→B at 4 h, 50 μM (chicken BCRP (Abcg2); [4]): 0.28 ± 0.01 ×10⁻⁶ cm/s
Papp B→A at 4 h, 50 μM (chicken BCRP (Abcg2); [4]): 0.68 ± 0.04 ×10⁻⁶ cm/s
Substrate status for chicken BCRP (FDA criteria: NER over 2.0 and efflux reversed by inhibitor) (chicken BCRP): substrate of chicken BCRP
bioavailability ([2]; Arbor Acres (AA) broiler, chicken, plasma, po, with gefitinib 100 mg/kg (BCRP inhibitor, co-dosed orally), oral 20 mg/kg, 8-week old broilers administered gefitinib (100 mg/kg)): 78.4%
AUC(0-t) [2, 5]: 5410 ± 310 ng·h/mL
half-life [2, 5]: 60 ± 51 min
Vd ([2]; Arbor Acres (AA) broiler, plasma, iv, 10 mg/kg, intravenous 10 mg/kg, 4-week old broilers, read-out: Vd): 1.51 ± 0.62 L/kg
AUC(0-t) [2, 6]: 5110 ± 1890 ng·h/mL
half-life [2, 6]: 47.4 ± 10.8 min
Vd ([2]; Arbor Acres (AA) broiler, plasma, iv, 10 mg/kg, intravenous 10 mg/kg, 8-week old broilers, read-out: Vd): 1.18 ± 0.29 L/kg
bioavailability ([2]; Arbor Acres (AA) broiler, plasma, po, 20 mg/kg, oral 20 mg/kg vs i.v. 10 mg/kg, 4-week old broilers): 79.3%
bioavailability ([2]; Arbor Acres (AA) broiler, plasma, po, 20 mg/kg, oral 20 mg/kg vs i.v. 10 mg/kg, 8-week old broilers): 48%
Cmax [2, 7]: 3870 ± 960 ng/mL
Tmax [2, 7]: 37.8 ± 12.6 min
AUC(0-t) [2, 7]: 8580 ± 1880 ng·h/mL
half-life [2, 7]: 196 ± 72 min
Cmax [2, 8]: 2930 ± 1070 ng/mL
Tmax [2, 8]: 37.2 ± 11.4 min
AUC(0-t) [2, 8]: 4910 ± 1560 ng·h/mL
half-life [2, 8]: 56.4 ± 10.2 min
Cmax [2, 9]: 1730 ± 480 ng/mL
Tmax [2, 9]: 120 ± 84.6 min
AUC(0-t) [2, 9]: 8010 ± 1650 ng·h/mL
bioavailability [2, 9]: 78.4%
half-life [2, 9]: 210 ± 201 min
ClB ([2]; intravenous 10 mg/kg, 4-week old broilers): 27.5 ± 9 mL/min/kg
ClB ([2]; intravenous 10 mg/kg, 8-week old broilers): 35.7 ± 11.2 mL/min/kg
Decrease of bioavailability in 8-week old broilers compared with 4-week old birds ([2]; oral 20 mg/kg): 31.3%
ClB [2, 10]: 40.5 ± 8.83 mL/min/kg
Vd [2, 10]: 3.42 ± 1.18 L/kg
AUC0~12h [2, 11]: 8.58 (µg/mL)·h
Cl [2, 11]: 2.43 mg/kg/h/(μg/mL)
Vd [2, 11]: 3.42 (mg/kg)/(µg/mL)
ClB [2, 12]: 73.8 ± 24.3 mL/min/kg
Vd [2, 12]: 5.64 ± 0.60 L/kg
ClB [2, 13]: 42.8 ± 8.67 mL/min/kg
Vd [2, 13]: 7.39 ± 2.98 L/kg
AUC0~12h [2, 14]: 8.01 (µg/mL)·h
Cl [2, 14]: 2.57 mg/kg/h/(μg/mL)
AUC0~12h [2, 15]: 4.91 (µg/mL)·h
Cl [2, 15]: 4.43 mg/kg/h/(μg/mL)
Vd [2, 15]: 5.64 (mg/kg)/(µg/mL)
